Values after ≈ are worked out from the molar mass of the structure shown.
Key:
Staphylococcus aureus [1] = assay: Antimicrobial activity against methicillin-resistant Staphylococcus aureus clinical isolate 1 measured after 18 hrs by agar dilution method; format: functional
Staphylococcus aureus [2] = assay: Potency index, ratio of norfloxacin MIC to test compound MIC for antimicrobial activity against methicillin-resistant Staphylococcus aureus clinical isolate 2; format: functional
Staphylococcus aureus [3] = assay: Potency index, ratio of ciprofloxacin MIC to test compound MIC for antimicrobial activity against methicillin-resistant Staphylococcus aureus clinical isolate 1; format: functional
Staphylococcus aureus [4] = assay: Potency index, ratio of norfloxacin MIC to test compound MIC for antimicrobial activity against methicillin-resistant Staphylococcus aureus clinical isolate 1; format: functional
Staphylococcus aureus [5] = assay: Potency index, ratio of ciprofloxacin MIC to test compound MIC for antimicrobial activity against methicillin-resistant Staphylococcus aureus clinical isolate 2; format: functional
Staphylococcus aureus [6] = assay: Antimicrobial activity against methicillin-resistant Staphylococcus aureus clinical isolate 2 measured after 18 hrs by agar dilution method; format: functional
Staphylococcus aureus [7] = assay: Antimicrobial activity against methicillin-resistant Staphylococcus aureus assessed as inhibition of microbial growth; format: functional
Staphylococcus aureus [8] = assay: Potency index, ratio of ciprofloxacin MIC to test compound MIC for antimicrobial activity against methicillin-resistant Staphylococcus aureus; format: functional
Staphylococcus aureus [9] = assay: Antimicrobial activity against methicillin-resistant Staphylococcus aureus by agar dilution method; format: functional
Staphylococcus aureus [10] = assay: Antimicrobial activity against methicillin-resistant Staphylococcus aureus MR101 Mu50 measured after 18 hrs by microplate dilution method; format: functional
Staphylococcus aureus [11] = assay: Antibacterial activity against methicillin-resistant Staphylococcus aureus infected in mouse model assessed as increase in survival rate relative to control; format: functional
Staphylococcus aureus [12] = assay: Antibacterial activity against methicillin-resistant Staphylococcus aureus infected in mouse model assessed as reduction in log10CFU in lungs (reference value: 8.47 log10CFU); format: functional
Staphylococcus aureus [13] = assay: Bactericidal activity against methicillin-resistant Staphylococcus aureus assessed as inhibition of microbial growth; format: functional
Staphylococcus aureus [14] = assay: Antibacterial activity against methicillin-resistant Staphylococcus aureus; format: functional
Staphylococcus aureus [15] = assay: Potency index, ratio of norfloxacin MIC to test compound MIC for antimicrobial activity against methicillin-resistant Staphylococcus aureus; format: functional
Staphylococcus aureus [16] = assay: Antimicrobial activity against methicillin-resistant Staphylococcus aureus Mi300 by microbroth dilution method; format: functional
Staphylococcus aureus [17] = assay: Antimicrobial activity against methicillin-resistant Staphylococcus aureus Mi339 by microbroth dilution method; format: functional
[18] = Cytotoxicity against human HEK293 cells incubated for 72 hrs by MTT assay; format: toxicity, cell-based
Staphylococcus aureus [19] = assay: Antimicrobial activity against fluoroquinolone-resistant Staphylococcus aureus assessed as inhibition of bacterial growth at 0.5 ug/ml relative to control; format: functional; design: scale not given: the % may be the effect or the level left; details: dose 0.5 µg/ml
Staphylococcus aureus [20] = assay: Antimicrobial activity against methicillin-resistant Staphylococcus aureus assessed as inhibition of bacterial growth at 0.5 ug/ml relative to control; format: functional; design: scale not given: the % may be the effect or the level left; details: dose 0.5 µg/ml
Staphylococcus aureus [21] = assay: Antimicrobial activity against methicillin-resistant Staphylococcus aureus; format: functional, organism-based
[22] = Permeability coefficient of compound; format: ADME; details: not told; read-out: Kp (converted)
Staphylococcus aureus [23] = assay: Antimicrobial activity against methicillin-resistant Staphylococcus aureus assessed as inhibition of microbial growth at 15.63 ug/ml relative to control; format: functional; design: scale not given: the % may be the effect or the level left; details: dose 15.63 µg/ml
[24] = Cytotoxicity against African green monkey Vero cells; format: toxicity, cell-based; details: chlorocebus sabaeus
Staphylococcus aureus [25] = assay: Antimicrobial activity against methicillin-resistant Staphylococcus aureus assessed as inhibition of bacterial growth by agar dilution method; format: functional
Staphylococcus aureus [26] = assay: Antibacterial activity against methicillin-resistant Staphylococcus aureus assessed as inhibition of microbial growth; format: functional
Staphylococcus aureus [27] = assay: Antimicrobial activity against methicillin-resistant Staphylococcus aureus incubated for 18 hrs by Alamar blue staining based analysis; format: functional
Staphylococcus aureus [28] = assay: Antimicrobial activity against community acquired methicillin-resistant Staphylococcus aureus incubated for 24 hrs by CLSI protocol based method; format: functional
Staphylococcus aureus [29] = assay: Antimicrobial activity against hospital acquired methicillin-resistant Staphylococcus aureus incubated for 24 hrs by CLSI protocol based method; format: functional

O=C(O)c1cn(C2CC2)c2cc(N3CCN(C/C(=N/O)c4ccco4)CC3)c(F)cc2c1=O
MIC (Staphylococcus aureus [1]): 0.19 µg/mL (≈ 0.418 µM) | Ratio (Staphylococcus aureus [2]): 4 | Ratio (Staphylococcus aureus [3]): 2 | Ratio (Staphylococcus aureus [4]): 4 | Ratio (Staphylococcus aureus [5]): 2 | MIC (Staphylococcus aureus [6]): 0.19 µg/mL (≈ 0.418 µM)

O=C(O)c1cn(C2CC2)c2c(c1=O)C=C(F)C1N=NC(c3ccc(F)cc3)=CN21 (centres undefined)
MIC (Staphylococcus aureus [7]): 0.25 µg/mL | Ratio (Staphylococcus aureus [8]): 32

CNCC1(C)CN(c2nc3c(cc2F)c(=O)c(C(=O)O)cn3C2CC2)CC/C1=N\OC (centres undefined)
MIC (Staphylococcus aureus [9]): 64 µg/mL (≈ 148 µM)

Cc1c(N2C[C@@H](F)[C@@H](C3(C)CC3)C2)c(F)c(N)c2c(=O)c(C(=O)O)cn([C@@H]3C[C@@H]3F)c12
MIC (Staphylococcus aureus [10]): 0.125 µg/mL (≈ 0.287 µM) | Activity (Staphylococcus aureus [11]): 90% | Activity (Staphylococcus aureus [12]): 6.33 log10CFU

CCO/N=C1\CCN(c2nc3c(cc2F)c(=O)c(C(=O)O)cn3C2CC2)CC1(C)CNC (centres undefined)
MIC (Staphylococcus aureus [9]): 64 µg/mL (≈ 144 µM)

CCn1cc(C(=O)O)c(=O)c2cc(F)c(N3CCNCC3)cc21 [NORFLOXACIN]
MIC (Staphylococcus aureus [1]): 0.78 µg/mL (≈ 2.44 µM) | MIC (Staphylococcus aureus [7]): < 0.016 µg/mL | MBC (Staphylococcus aureus [13]): 4 µg/mL | MIC (Staphylococcus aureus [14]): 8 µg/mL (≈ 25.1 µM) | MIC (Staphylococcus aureus [6]): 0.78 µg/mL (≈ 2.44 µM)

O=C(O)c1cn(CC(O)Cn2cncn2)c2ccc(F)cc2c1=O (centres undefined)
MIC (Staphylococcus aureus [14]): 1 µg/mL (≈ 3.01 µM) | Ratio (Staphylococcus aureus [15]): 8

C[C@@H](O)[C@H]1C(=O)N2C(C(=O)O)=C(COC(=O)N[C@H]3CCC(c4c(F)cc5c(=O)c(C(=O)O)cn(C6CC6)c5c4F)C3)S[C@H]12 (some centres undefined)
MIC (Staphylococcus aureus [16]): ≤ 0.06 µg/mL | MIC (Staphylococcus aureus [17]): 4 µg/mL (≈ 6.46 µM)

CC(=O)N[C@@H]1[C@H](Oc2c3cc4cc2Oc2ccc(cc2Cl)[C@@H](O[C@@H]2O[C@@H](CO)[C@@H](O)[C@H](O)[C@@H]2NC(C)=O)[C@@H]2NC(=O)[C@H](NC(=O)[C@@H]4NC(=O)[C@H]4NC(=O)[C@@H](Cc5ccc(c(Cl)c5)O3)NC(=O)[C@H](N)c3ccc(O)c(c3)Oc3cc(O)cc4c3)c3ccc(O)c(c3)-c3c(O[C@H]4O[C@H](CO)[C@@H](O)[C@@H](O)[C@@H]4O)cc(O)cc3[C@@H](C(=O)O)NC2=O)O[C@@H](CO)[C@@H](O)[C@@H]1O
MIC (Staphylococcus aureus [10]): 0.5 µg/mL (≈ 0.283 µM) | Activity (Staphylococcus aureus [11]): 45% | Activity (Staphylococcus aureus [12]): 7.36 log10CFU

O=C(O)c1cn(C2CC2)c2cc(N3CCN(C/C(=N/O)c4cccs4)CC3)c(F)cc2c1=O
MIC (Staphylococcus aureus [1]): 0.19 µg/mL (≈ 0.404 µM) | Ratio (Staphylococcus aureus [2]): 4 | Ratio (Staphylococcus aureus [3]): 2 | Ratio (Staphylococcus aureus [4]): 4 | Ratio (Staphylococcus aureus [5]): 2 | MIC (Staphylococcus aureus [6]): 0.19 µg/mL (≈ 0.404 µM)

COc1ccc(Cn2c(-c3ccccc3O)nn(CN3CCN(c4c(F)cc5c(=O)c(C(=O)O)cn(C6CC6)c5c4Cl)CC3)c2=S)cc1
EC50 at 72 h [18]: 50.5 µM

O=C(O)c1cn(C2CC2)c2c(Cl)c(N3CCN(Cn4nc(-c5ccccc5O)n(-c5cc(Cl)cc(Cl)c5)c4=S)CC3)c(F)cc2c1=O
EC50 at 72 h [18]: 50.5 µM

COc1c(N2CC[C@@H](C3(C)CC3)C2)c(F)cc2c(=O)c(C(=O)O)cn([C@@H]3C[C@@H]3F)c12
Activity (Staphylococcus aureus [19]): 90% | Activity (Staphylococcus aureus [20]): 90%

CCn1cc(C(=O)O)c(=O)c2cc(F)c(N3CCN(C/C(=N/O)c4ccc(OC)cc4)CC3)c(F)c21
Ratio (Staphylococcus aureus [15]): 24 | MIC (Staphylococcus aureus [21]): 0.2 µM

O=C(O)c1cn(CC(O)Cn2cncn2)c2cc(C(F)(F)F)ccc2c1=O (centres undefined)
MIC (Staphylococcus aureus [14]): 1 µg/mL (≈ 2.62 µM) | Ratio (Staphylococcus aureus [15]): 8

CCOC(=O)c1cn(C2CC2)c2cc(N3CCNCC3)ccc2c1=O
Papp [22]: 0.106 ×10⁻⁶ cm/s | Activity (Staphylococcus aureus [23]): 80%

CO/N=C1\CCN(c2nc3c(cc2F)c(=O)c(C(=O)O)cn3C2CC2)CC1(C)CN (centres undefined)
CC50 [24]: 177 µg/mL (≈ 423 µM) | MIC (Staphylococcus aureus [21]): 8 µg/mL

C[C@H]1CCc2c(N3CCC(O)CC3)c(F)cc3c(=O)c(C(=O)O)cn1c23.N=C(N)NCCC[C@H](N)C(=O)O.O.O.O.O
MIC (Staphylococcus aureus [25]): 1 µg/mL

NO/N=C(/CN1CCN(c2cc3c(cc2F)c(=O)c(C(=O)O)cn3C2CC2)CC1)c1cccs1
MIC (Staphylococcus aureus [1]): 0.19 µg/mL (≈ 0.391 µM) | Ratio (Staphylococcus aureus [2]): 4 | Ratio (Staphylococcus aureus [3]): 2 | Ratio (Staphylococcus aureus [4]): 4 | Ratio (Staphylococcus aureus [5]): 2 | MIC (Staphylococcus aureus [6]): 0.19 µg/mL (≈ 0.391 µM)

CCOC(=O)c1cn(CC(O)Cn2cncn2)c2c(Cl)cc(Cl)cc2c1=O (centres undefined)
MIC (Staphylococcus aureus [14]): 1 µg/mL (≈ 2.43 µM) | Ratio (Staphylococcus aureus [15]): 8

C[C@@H](O)[C@H]1C(=O)N2C(C(=O)O)=C(COC(=O)N3CCN(c4cc5c(cc4F)c(=O)c(C(=O)O)cn5C4CC4)CC3)S[C@H]12
MIC (Staphylococcus aureus [16]): 0.06 µg/mL (≈ 0.0996 µM) | MIC (Staphylococcus aureus [17]): 0.06 µg/mL (≈ 0.0996 µM)

CN[C@H](CC(C)C)C(=O)N[C@H]1C(=O)N[C@@H](CC(N)=O)C(=O)N[C@H]2C(=O)N[C@H]3C(=O)N[C@H](C(=O)N[C@H](C(=O)O)c4cc(O)cc(O)c4-c4cc3ccc4O)[C@H](O)c3ccc(c(Cl)c3)Oc3cc2cc(c3O[C@@H]2O[C@H](CO)[C@@H](O)[C@H](O)[C@H]2O[C@H]2C[C@](C)(N)[C@H](O)[C@H](C)O2)Oc2ccc(cc2Cl)[C@H]1O [VANCOMYCIN]
Activity (Staphylococcus aureus [11]): 45% | Activity (Staphylococcus aureus [12]): 7.99 log10CFU

CCCOC(=O)c1cn(C2CC2)c2cc(N3CCNCC3)ccc2c1=O
Papp [22]: 0.195 ×10⁻⁶ cm/s | Activity (Staphylococcus aureus [23]): 80%

O=C(O)c1cn(C2CC2)c2cc(N3CCN(Cc4cccc(CN5CCN(c6ncc7c(=O)c(C(=O)O)cn(C8CC8)c7n6)CC5)c4)CC3)ccc2c1=O
Ratio (Staphylococcus aureus [8]): >16 | MIC (Staphylococcus aureus [21]): < 0.03 µg/mL

O=C(O)c1cn(C2CC2)c2c(c1=O)C=C(F)C1N=NC(c3ccccc3F)=CN21 (centres undefined)
MIC (Staphylococcus aureus [7]): 0.25 µg/mL | Ratio (Staphylococcus aureus [8]): 32

O=C(O)c1cn(C2CC2)c2c(Cl)c(N3CCN(Cn4nc(-c5ccccc5O)n(Cc5ccc(F)cc5)c4=S)CC3)c(F)cc2c1=O
EC50 at 72 h [18]: 50.5 µM

CCO/N=C1\CCN(c2c(F)cc3c(=O)c(C(=O)O)cn(C4CC4)c3c2F)CC1(C)CNC (centres undefined)
MIC (Staphylococcus aureus [9]): 64 µg/mL (≈ 138 µM)

COC(=O)c1cn(C2CC2)c2cc(N3CCNCC3)ccc2c1=O
Papp [22]: 0.00797 ×10⁻⁶ cm/s | Activity (Staphylococcus aureus [23]): 80%

O=C(O)c1cn(C2CC2)c2cc(N3CCNCC3)c(F)cc2c1=O [CIPROFLOXACIN]
MIC (Staphylococcus aureus [16]): 0.25 µg/mL (≈ 0.754 µM) | MBC (Staphylococcus aureus [13]): 0.031 µg/mL | MIC (Staphylococcus aureus [17]): 32 µg/mL (≈ 96.6 µM) | MIC (Staphylococcus aureus [26]): 0.06 µg/mL | MIC (Staphylococcus aureus [27]): 64 µg/mL (≈ 193 µM) | MIC (Staphylococcus aureus [21]): 0.5 µg/mL

Cc1c(N2CC(NC(C)C)C2)c(F)cc2c(=O)c(C(=O)O)cn(-c3nc(N)c(F)cc3F)c12
MIC90 (Staphylococcus aureus [28]): 0.06 µg/mL (≈ 0.13 µM) | MIC90 (Staphylococcus aureus [29]): 0.06 µg/mL (≈ 0.13 µM)

Source: ChEMBL document CHEMBL5244218, “Quinolone derivatives and their activities against methicillin-resistant Staphylococcus aureus (MRSA)” (Eur J Med Chem, 2018)
